# Measurements taken from patent US20080064723A1, “Anti-Hair Graying Agent” (SHISEIDO COMPANY, LTD., priority 2004, published 2008).
# Tested on: humans
# Assay: Human anti-hair graying effect test
# Assay type: in vivo
# Conditions: 0.25% sample applied on scalps of 10 male subjects, two times per day, 2 ml per time, six months; after use vs before use
# Procedure: As the test substances, compounds 1, 2 and 3 were used. Each test substance was dissolved in a mixed solution of an aqueous 70% ethanol solution plus 1% 1,3-butylene glycol and the resultant mixture used as the sample (test substance concentration: 0.25%).
# The number of gray hairs among approximately 1000 hairs was counted before and after use of each sample. The changes of the ratios were used to compare the anti-hair graying actions. Specifically, each sample was applied on the scalps of 10 male subjects two times per day, 2 ml per time, continuously for six months. One thousand hairs of each of the subjects were counted divided into black hairs and gray hairs before the application and right after the end of six months after termination of the application to investigate the hair graying rate. The ratios (%) of the subjects where the hair graying rates after use declined 20% or more compared with before use, changed within ±20% or increased by 20% or more were respectively calculated.
SMILES,Hair graying rate: Changing within ±20% (ratio of subjects),Hair graying rate: Declining 20% or more (ratio of subjects),Hair graying rate: Increasing 20% or more (ratio of subjects)
"CCOC(=O)C1CCNCC1 [Compound 3, 4-piperidine carboxylic acid ethyl ester]",20%,70%,10%
"O=C(O)C1CCNCC1 [Compound 2, 4-piperidine carboxylic acid]",30%,60%,10%
"NC1CCC(C(=O)O)CC1 (stereo not drawn) [Compound 1, 4-aminocyclohexane carboxylic acid]",30%,70%,0%
